Laboratory results published in article PMC8065212, “The active form of the influenza cap-snatching endonuclease inhibitor baloxavir marboxil is a tight binding inhibitor” (The Journal of Biological Chemistry, 2021).
Where “and” joins values, the source holds several entries; their conditions need not be identical. Identical values can stand only once. Entries after “also recorded” stand apart in the source; their conditions may differ. Like-named read-outs stand apart in the source and are kept apart here.

Legend:
[1] = target: FluB-ht WT (recombinant influenza B heterotrimeric PA/PB1/PB2 polymerase, PA endonuclease) (Influenza B virus, UniProt Q5V8Z9); experiment: biochemical
FluB-ht WT [2] = type: biochemical; settings: 75 nM BXA
FluB-ht WT [3] = type: biochemical; settings: 75 nM BXA, 55 nM FluB-ht WT
FluB-ht = experiment: Michaelis-Menten kinetics of BXA inhibition; type: biochemical, Influenza B; settings: 25 nM FluB-ht, substrate as indicated
Text: Supplementary Figure S4. Michaelis-Menten kinetics of BXA inhibition. (A) Scheme detailing the experimental setup and representative data showing the effect of BXA on substrate utilization by FluB-ht. (B) Graphic representation and analysis of the data presented in panel A are shown on the left-hand side graph. The effects of increasing concentrations of BXA on kcat and Km are illustrated on the right-hand side graph. Data represents the average of two independent experiments. The final reaction conditions were as follows: 30 mM Tris-HCL pH 7.5, 25 mM NaCl, 5 mM MgCl2, 25 nM FluB-ht, 1.7 µM vRNA, 5% DMSO, BXA as indicated and 20-nt capped substrate as indicated. The indicated substrate concentrations were achieved by mixing 0.1 µM 20-nt radiolabeled capped substrate RNA with increasing amounts of unlabeled substrate. […] The data point at 2.1 µM was therefore not considered for kcat and Km measurements. […] Tight binding of enzyme and inhibitor depletes the concentration of free enzyme and the steady-state assumption is no longer valid.

[4] = system: cap-snatching endonuclease (PA); settings: enzyme concentration not indicated; cited from earlier work
influenza infection = settings: cited from earlier work
influenza = settings: single dose, postexposure prophylaxis; placebo group 13.6%; cited from earlier work
influenza virus = settings: cited from earlier work

O=C1c2c(O)c(=O)ccn2N([C@@H]2c3ccccc3SCc3c2ccc(F)c3F)[C@@H]2COCCN12 [BXA, baloxavir acid]
IC50 [1]: 112 nM | Ki [1]: 12 nM | dependence of IC50 on substrate concentration ([1]; 100, 300 and 500 nM 20-nt substrate, 55 nM FluB-ht WT (Fig. S1)): independent within a narrow range of substrate concentrations | slope of plot of IC50 versus enzyme concentration ([1]; WT): 0.56 and ~0.5 | inhibition of endonuclease activity by order of addition (FluB-ht WT [2]; 55 nM FluB-ht WT, 1 hour preincubation): inhibition was only observed under conditions where an E:I:Mg^2+ complex was preformed; also recorded: Preincubation E, I, and MgCl2 is required for inhibition | nuclease activity over longer periods of time after preformed E:I:Mg2+ complex (FluB-ht WT [2]; up to 120 min): negligible | preincubation time for maximal inhibition (FluB-ht WT [3]): ~30 min | effects of increasing concentrations of BXA on kcat and Km (FluB-ht): reduction in kcat and constant Km values | IC50 [4]: ~2 nM

COC(=O)OCOc1c2n(ccc1=O)N([C@@H]1c3ccccc3SCc3c1ccc(F)c3F)[C@@H]1COCCN1C2=O [BXM, Baloxavir marboxil]
reduction in time until symptom resolution (influenza infection; human, in vivo): 20–25% | household transmissions (influenza): 1.9% | EC50 (influenza virus): low nanomolar range

CCOC(=O)C1=C[C@@H](OC(CC)CC)[C@H](NC(C)=O)[C@@H](N)C1 [oseltamivir]
reduction in time until symptom resolution (influenza infection): 20–25%
